Laboratory results: patent publication US9050278B2, “Scavenger of in vivo harmful reactive oxygen species and/or free radicals” (priority 2005, dated 2015)
Where two headings read alike, the source gives them in different places.

How the values were obtained:
PC12 cells [1] = experiment: Cell death induced by menadione, viable cell count; format: cell-based, Rat
Procedure: (§1) The cells were cultured with an incubator at 37° C. under 5% CO2.
(§2) The cells were cultured at 37° C. in a sealed state. […] The cells were cultured at 37° C.
(§3) After 24 hours, the number of viable cells having a pyramid-shaped cell form was counted under a phase contrast microscope.
(§4) PC12 cells were cultured in a collagen-coated 24-well cell culture dish (manufactured by IWAKI&Co. Ltd.). […] After 0, 1, 2, and 3 days, the number of viable cells having a pyramid-shaped cell form was counted under a phase contrast microscope.
as §4, with “Cell death was induced by antimycin A or menadione in the same way as in Examples 2 and 3. […] First, PC12” for “PC12”, “24 hours,” for “0, 1, 2, and 3 days,”

PC12 cells [2] = experiment: Cell death induced by antimycin A, viable cell count; format: cell-based, Rat
Procedure: as §1, §2, §3, §4
as §4, with “Cell death was induced by antimycin A or menadione in the same way as in Examples 2 and 3. […] First, PC12” for “PC12”, “24 hours,” for “0, 1, 2, and 3 days,”
as §3

[3] = neutral solution saturated with hydrogen molecules, room temperature
[4] = Elimination of superoxide by hydrogen water; format: biochemical; details: neutral solution saturated with hydrogen molecules, room temperature
Procedure: (§5) First, 1 l of water was injected into a 5-l pressure-resistant bottle (manufactured by UNICONTROLS. CO., LTD.).
For superoxide (O2^−.), 25× Reaction Buffer, Xanthine Solution, and NBT Solution contained in […] […] Then, a Xanthine oxidase solution was added thereto to thereby generate O2^−.. NBT-diformazan accumulation was measured over time with a spectrophotometer at 550 nm.
(§6) After reaction at room temperature for 30 minutes, absorbance at 415, 400, and 340 nm, respectively, were measured with a spectrophotometer.

PC12 cells [5] = details: antimycin A 10 μg/ml, 0.6 mM hydrogen, 30 minutes
Procedure: (§7) To generate .OH via O2^−., antimycin A was added to cells. […] The cells were cultured at 37° C.
(§8) In .OH detection, HPF (0.4 μM) was added to a cell medium, and the fluorescence image thereof was observed using a confocal laser scanning microscope (FV300 manufactured by Olympus Corp.) at an excitation wavelength of 488 nm and an […] wavelength of 510 nm. MitoTracker Green (1 μM; Molecular Probes) and MitoTracker Red (100 nM; Molecular Probes) were used in the staining of mitochondria. Anti-HNE and anti-8-OH-G antibodies were purchased from Nikken Seil Co., Ltd. Moreover, anti-TUJ-1 and anti-GFAP antibodies were purchased from Babco and Immunon, respectively.

skeletal muscle = test system: skeletal muscle
Procedure: It has been known that strenuous exercise and the sudden stop of exercise generate free radicals and damage various tissues including muscles. […] Rats (Wister Rats, 8 week old, male) were run at a speed of 40 m/min. for 20 minutes. […] After 30 minutes, the rats were slaughtered. The skeletal muscle was excised. […] The method was conducted according to Sakai, Y., Iwamura, Y., Hayashi, J., Yamamoto, N., Ohkoshi, N., Nagata, H., Acute exercise causes mitochondrial DNA deletion in rat skeletal muscle., Muscle and Nerve 22: 256-261, 1999.

[6] = test system: cerebral ischemia-reperfusion injury
Procedure: In cerebral ischemia, diverse mechanisms generate reactive oxygen species, and .OH is detected after ischemia-reperfusion. Rats were rendered locally ischemic for 90 minutes by mild cerebral artery occlusion and subsequently reperfused for 30 minutes. […] FK506 (1 mg/kg of body weight) was administered into the blood once immediately before reperfusion. Edaravone (3 mg/kg of body weight) was administered into the blood twice immediately before reperfusion and immediately after reperfusion. After anesthesia, the rats were maintained at 20° C. under usual air. […] After 1 day of mild cerebral artery occlusion, the brain was sliced, and the slices were stained with 2,3,5-triphenyltetrazolium salt (TTC) capable of serving as a substrate in mitochondrial respiration process. After 1 week, the animals were put under anesthesia. Then, the brain was rapidly excised and fixed with 10% formalin. The paraffin-embedded brain was sliced into a thickness of 6 μm, and the slices were stained with hematoxylin-eosin. Moreover, VECSTAIN ABC Kit was used in staining with antibodies. Anti-Iba-I antibodies were purchased from Wako Pure Chemical Industries, Ltd. Image analysis software (Mac Scope ver. 2.55; Mitsuya Shoji) was used in slide analysis. All the animal experiments were conducted according to the guideline of the animal commission of Nippon Medical School.
An infarct volume was estimated by measuring visually white regions in the brain. […] For comparison, two compounds were further tested. […] The other compound was FK506, which is under clinical trial for cerebral infarction in USA. […] The brain infarct volume was calculated as a total sum of all the slices according to the equation: infarct area×thickness.
Rats were rendered locally ischemic for 90 minutes by mild cerebral artery occlusion and subsequently reperfused for 30 minutes. […] The brain was cut by coronal section into 6 slices after 1 day of mild cerebral artery occlusion, and the slices were stained with TTC.
The photographs of FIG. 28 are the staining images of 3 different slices obtained by this method. […] An average value of infarct volumes and standard deviation were determined from the values of 6 animals in each group. *P<0.05, **P<0.01, ***P<0.001.
The brain was fixed after 3 days or 7 days of mild cerebral artery occlusion and embedded in paraffin. The coronal sections of 6 μm in thickness were stained with anti-8-OH-G, anti-HNE, or anti-GFAP antibodies. The left photographs of FIGS. 31 to 33 show the same regions adjacent to occlusion in the temporal cortical regions. The scale bar denotes 100 μm.
In the staining experiment, the brain was fixed after 3 days or 7 days of mild cerebral artery occlusion and embedded in paraffin. The coronal sections were stained with each antibody. The photographs of FIG. 34 show the central regions of occlusion in the temporal cortical regions. The scale bar of FIG. 34 denotes 200 μm. The scale bar in the inserted photographs of FIG. 34 denotes 100 μm. In FIG. 35, an average value of the number of Iba-1-positive cells in a certain field and standard deviation were determined from 6 animals in each group. *P<0.05. […] Microglia accumulation serves as an indicator for a brain disorder.

[7] = Reduction of FAD in hydrogen water; format: biochemical; details: neutral solution saturated with hydrogen molecules, room temperature
Procedure: as §5, §6

[8] = test system: ischemia-reperfusion injury in the liver; details: untreated 74
Description: Mice (C57BL/6 line, 5 week old, male) were put under general anesthesia by supplying mixed anesthetic gases (oxygen: 0.3 L/min., nitrous oxide: 0.7 L/min., Sevofrane (Maruishi Pharmaceutical Co., Ltd.): 3%) thereto with a small animal general anesthesia machine Soft Lander (Neuroscience Inc.). After anesthesia introduction, the anesthesia was maintained for a long time by supplying thereto a mixed anesthetic gas containing Sevofrane at a concentration reduced to 1.5% (oxygen: 0.3 L/min., laughing gas: 0.7 L/min., Sevofrane: 1.5%). Surgical skills (reference: Yadav, S. S. et al., Transplantation 65, 1433-1436 (1998)) shown below were used to prepare model animals with local ischemia-reperfusion injury in the liver. The model animals were examined by hematoxylin-eosin staining (H&E staining) for tissue degeneration in the ischemic liver and hepatic parenchymal cell death induced by ischemia-reperfusion injury.
The belly was opened in the middle thereof. Three canals, portal vein, hepatic artery, and bile duct, leading to the left robe of the liver were together blocked (ischemia start) with a micro-clamp (FD562; Aesculap, South San Francisco, Calif., USA). The belly was sutured with a silk thread. After 90 minutes, the belly was opened again by removing the silk thread used for suture, and the micro-clamp was removed (reperfusion start). The belly was sutured again with a silk thread. The left robe of the liver was reperfused for 3 hours under anesthesia. […] After reperfusion for 3 hours, the left robe of the liver (ischemic liver) was excised and cut into fine strip slices. The slices were fixed by dipping in 10% neutral buffered formalin solution (Wako Pure Chemical Industries, Ltd.).
The fixed ischemic liver slices were subjected to dehydration with ethyl alcohol, dehydrating agent removal with xylene, and paraffin infiltration in an automatic embedding apparatus (SAKURA, Tissue-Tek VIPS). The paraffin-embedded ischemic liver was cut into slices of 3 μm to 5 μm in thickness with a sledge microtome. The slices were attached to slide glass. […]

PC12 cells [9] = details: antimycin A 10 μg/ml, 0.6 mM hydrogen, 24 hours
Procedure: as §7, §8
The scale bars in FIGS. 16 and 18 denote 100 μm. Immunostaining intensities with anti-8-OH-G (FIG. 17) and anti-HNE (FIG. 19) antibodies were quantified using NIH Image software. […] Average values and standard deviations were determined from 4 independent experiments. *P<0.05, **P<0.01, ***P<0.001.

[10] = hydrogen pressure of 1 atm and room temperature; cited from earlier work
[11] = Elimination of hydrogen peroxide by hydrogen water; format: biochemical; details: neutral solution saturated with hydrogen molecules, room temperature
Procedure: as §5
After reaction at room temperature for 30 minutes, 0.2 M phosphate buffer (pH 7.2) containing an equal amount of 20 μM DCFDA was subsequently added thereto. After reaction for 10 minutes, the amount of H2O2 remaining was measured with a fluorescence analyzer at an excitation wavelength of 485 nm.
as §6

[12] = room temperature, neutral conditions, without catalysts, HPF fluorescence
Description: RF-5300PC (manufactured by Shimadzu Corp.) was used in fluorescence intensity measurement.
The .OH was monitored with a spectrofluorometer.

cytochrome c = experiment: Reduction of cytochrome c in hydrogen water; format: biochemical; details: neutral solution saturated with hydrogen molecules, room temperature
Procedure: as §5, §6

[13] = neutral solution saturated with hydrogen molecules, room temperature; remark: listed apart in the source
[14] = Elimination of nitrogen monoxide by hydrogen water; format: biochemical; details: neutral solution saturated with hydrogen molecules, room temperature
Procedure: First, 1 l of water was injected into a 5-l pressure-resistant bottle (manufactured by UNICONTROLS. CO., LTD.). […] After reaction at room temperature for 30 minutes, 1 μM 5-(and -6)-chloromethyl-2′,7′-dichlorodihydrofluorescein diacetate (DCFDH; manufactured by Molecular Probe, USA) was subsequently added thereto. The amount of NO remaining was measured with a fluorescence analyzer (manufactured by TECAN, Austria) at an excitation wavelength of 485 nm. […] After reaction at room temperature for 30 minutes, absorbance at 415, 400, and 340 nm, respectively, were measured with a spectrophotometer.

[15] = Reduction of NAD+ in hydrogen water; format: biochemical; details: neutral solution saturated with hydrogen molecules, room temperature
Procedure: as §5, §6

[16] = test system: cerebral cortex-derived primary cultured neuronal cells
Procedure: Rat cerebral cortex-derived primary cultured cells were used to induce oxidative stress under more physiological conditions.
Rat cerebral cortex-derived primary cultured neuronal cells were prepared from a 16-day-old fetus. The cerebral cortex was cut after meninges removal and digested with a protease mixed solution (SUMILON). The slices were mechanically dissociated with a pipette. Then, the cells were dispersed in a nerve cell culture medium (SUMILON) and seeded at a cell density of 5×10^4 cells/cm^2 in a plate coated with poly-L-lysine. The medium was replaced every three days by Neurobasal Medium (Gibco) containing B-27 (Gibco). The cells cultured for 11 days were used in the experiment. One day before the creation of an oxygen-glucose-deficient state, the medium was replaced by Neurobasal Medium (Gibco) containing B-27 minus AO (Gibco). […] 90% or more of the cells were neuronal cells.
To terminate the oxygen-glucose-deficient state, the medium was replaced again by the medium used before replacement. Culture was further continued at 37° C. in 95% air/5% carbon dioxide atmosphere.
After 10 minutes of the termination of the oxygen-glucose-deficient state, the amount of .OH was measured based on HPF fluorescence. […] To prepare a control, cells were treated with a DMEM medium containing glucose and oxygen, instead of being exposed to an oxygen-glucose-deficient state. […] An average value and standard deviation was determined from 4 independent experiments. **P<0.01.
After 1 day of oxygen-glucose deficiency, the viable neuronal cells were further detected by staining neuron-specific anti-TUJ-1 antibody. […] Average values and standard deviations shown in FIGS. 23 and 24 were determined from 4 independent experiments. ^#<0.0001 in FIG. 23, *P<0.05 in FIG. 24.

[17] = 2% hydrogen gas inhalation vs non-inhalation
[18] = brain fixed after 3 days or 7 days of occlusion

SMILES: Cc1c(C)c2c(c(C)c1O)CC[C@@](C)(CCC[C@H](C)CCC[C@H](C)CCCC(C)C)O2 [alpha-tocopherol, reference compound]
- number of viable cells / inhibitory effects on cell death (PC12 cells [1]; menadione 3 μM, 24 hours, vs hydrogen-free medium, alpha-tocopherol 100 μM (Example 5)): significant effects on menadione were not observed
- number of viable cells / inhibitory effects on cell death (PC12 cells [2]; antimycin A 10 μg/mL, 24 hours, vs hydrogen-free medium, alpha-tocopherol 100 μM (Example 5)): observed, albeit weaker than those of hydrogen

SMILES: [HH] [hydrogen molecules, hydrogen]
- durability of cell death inhibitory effects (time course) (PC12 cells [1]; menadione 10 μM, 0, 1, 2 and 3 days): confirmed even on the 2nd day or later
- reduction of Fe^3+ [3]: does not reduce
- reduction of O2^−. [4]: do not reduce
- .OH levels (HPF fluorescence) (PC12 cells [5]): reduced .OH levels
- deletion in mitochondrial DNA (PCR) (skeletal muscle; rats after exercise that ingested hydrogen (inhalation or intraperitoneal saline containing supersaturated hydrogen)): reduced
- damage in the muscular tissues (H&E staining) (skeletal muscle; rats run 40 m/min. for 20 minutes, then air containing 10% hydrogen gas for 30 minutes): alleviate damage in the muscular tissues
- body temperature [6, 17]: improved
- body weight [6, 17]: improved
- brain infarct volume (TTC staining) ([6]; 2% hydrogen gas inhaled only during ischemia but not during reperfusion, 1 day): not reduced
- most effective hydrogen concentration for reduction of infarct volume ([6]; 1 day after occlusion, inhaled gas 0 to 4% (v/v) hydrogen): 2%
- brain infarct volume (TTC staining) ([6]; 1 day after occlusion, inhaled hydrogen 0 to 4% (v/v) for 120 minutes in total): Hydrogen concentration-dependent reductions in infarct volume were obviously observed
- alleviation of an oxidative disorder compared with Edaravone and FK506 ([6]; Edaravone 6 mg/kg of body weight, FK506 1 mg/kg of body weight): more effective for the alleviation of an oxidative disorder than any of the other compounds tested
- difference in infarct volume between hydrogen-treated and hydrogen-untreated group (hematoxylin-eosin) ([6]; after 1 week of occlusion): more significant after 1 week
- oxidation marker stainings (anti-8-OH-G, anti-HNE, anti-GFAP positive cells) [6, 18]: significantly reduced
- staining with microglia-specific anti-Iba-I antibodies [6, 18]: significantly reduced
- reduction of FAD [7]: does not reduce
- Degenerated region in liver tissues (%) ([8]; hydrogen gas flow rate 0.04 L/min., from 10 minutes before reperfusion start through whole reperfusion period (280 minutes in total)): 26%
- Degenerated region in liver tissues (%) ([8]; hydrogen gas flow rate 0.1 L/min., from 5 minutes before reperfusion start to 5 minutes after reperfusion start (10 minutes in total)): 20%
- Degenerated region in liver tissues (%) ([8]; hydrogen gas flow rate 0.2 L/min., from 5 minutes before reperfusion start to 5 minutes after reperfusion start (10 minutes in total)): 10%
- accumulation of 4-hydroxy-2-nonenal (HNE) (PC12 cells [9]): inhibition of accumulation
- oxidized guanine (8-OH-G) level (PC12 cells [9]): protected nuclear DNA from oxidation
- amount of hydrogen that can be dissolved per L of water [10]: approximately 17.5 mL per L
- reduction of hydrogen peroxide [11]: do not reduce
- hydroxyl radicals (.OH) levels [12]: reduce hydroxyl radicals (.OH) levels
- reduction of oxidized cytochrome c containing trivalent heme iron (cytochrome c): does not reduce
- reduction of Cu^2+ [13]: does not reduce
- reduction of nitrogen monoxide [14]: do not reduce
- reduction of NAD^+ [15]: does not reduce
- durability of cell death inhibitory effects (time course) (PC12 cells [2]; antimycin A 30 μg/mL, 0, 1, 2 and 3 days): confirmed even on the 2nd day or later
- hydrogen concentration at which cell death could still be inhibited significantly (PC12 cells [2]; antimycin A 30 μg/mL, 24 hours, approximately 1/16 of the saturated hydrogen concentration): 50 µM
- increase in the amount of .OH (HPF fluorescence) ([16]; 10 minutes after termination of 60 minutes oxygen-glucose-deficient state, 95% hydrogen/5% carbon dioxide vs nitrogen): not observed in the presence of hydrogen
- number of viable neuronal cells ([16]; 1 day after oxygen-glucose deficiency, anti-TUJ-1 staining): increased the number of viable neuronal cells
- viability of neuronal cells (cell count, modified MTT method) ([16]; 1 day after oxygen-glucose-deficient state): increased their viabilities
